Laboratory results taken from patent publication US6537744B1, “Use of biomarkers in saliva to evaluate the toxicity of agents and the function of tissues in both biomedical and environmental applications” (priority 1995, dated 2003).
“And” between values parts separate entries of the source, which are not always exact repeats. Equal values may be shown once.

What was measured:
[1] = system: acetylcholinesterase in human saliva; test: Inhibition of acetylcholinesterase in human saliva (acetylthiocholine iodide/DTNB, 405 nm); type: biochemical; settings: for inhibition of acetylcholinesterase (in words): human saliva
Protocol: The hydrolysis of acetylthiocholine iodide (an analog of acetylcholine iodides) by the saliva enzyme or enzymes is measured by generating the yellow 5-thio-2-nitrobenzoate with an absorbance maximum at 405 nm. The rate of change of absorbance is directly proportional to acetylcholinesterase activity. In this procedure, 0.1-1 mL of saliva (3.261 mg protein/mL) is incubated with 100 μL of acetylthiocholine iodide (0.018M) (lot #10H0653 Sigma) for 30-180 minute at 37° C. in 4.0 mL phosphate buffer (pH 7.8). After the incubation, a 0.2 mL of DTNB is added and the sample is read at 405 nm. The enzyme activity is calculated from glutathione standard curve (Table 9 and FIG. 9). Values for AChE activity in human saliva and enzyme kinetics are presented in Tables 10-14 and show in FIG. 10 through FIG. 14.
The AChE specific activity in saliva is about 4 nmol minute^−1 per mL of saliva. […] The percent of enzyme inhibition by organophosphate is calculated and presented in Tables 13-14 and showing in FIG. 15.

[2] = system: carboxylase in human saliva; test: Inhibition of carboxylase in human saliva (p-nitrophenylvalerate hydrolysis, 400 nm); type: biochemical; settings: for inhibition of carboxylase (in words): human saliva
Protocol: The carboxylase activity in saliva samples is monitored by the hydrolysis of p-nitrophenylvalerate to the readily detectable p-nitrophenol. The concentration of p-nitrophenol in the sample is measured spectrophotometrically at 400 nm, and the value is calculated from p-nitrophenol standard curve (Table 3 and FIG. 4). Values for carboxylase activity in saliva (nmol. min-1 per mL of saliva) are presented in Tables 4-8 and showing in FIG. 5 and FIG. 6. The average specific activity for carboxylase in human saliva is about 47 nmol min^−1 per mL.
The assay for carboxylase consists of 4 mL of tris-HCl buffer (pH 7.0) that contain 25 μL of p-nitrophenylvalerate (13.8 mg/mL of alcohol) and 50-500 μL of human saliva. […] In the inhibition study, the agent is incubated with saliva for about 15-20 minutes before the addition of p-nitrophenylvalerate. Organophosphate concentration is verified by gas chromatography using standard methods as described by Knaak et al. (1993).

[3] = 22 μg/mL, Test #2, 50 μL saliva, 20 min preincubation
[4] = 29 μg/ml in Tris/Citrate, test #1, 200 μL saliva, 15 min preincubation, 37° C.
[5] = 240 μg of isofenphos in 4.0 mL, Test #2, 200 μL saliva, 37° C.
[6] = 60 μg/mL, Test #2, 50 μL saliva, 20 min preincubation
[7] = 500 μg/ml, test #1, 200 μL saliva, 15 min preincubation, 37° C.

SMILES	inhibition of acetylcholinesterase (in words) [1]	% Act. [2, 3] [%]	Absorb. at 400 nm for 20 min. [2, 3]	Absorb. at 400 nm for 100 min. [2, 3]	% Inhib. [2, 4] [%]	Absorb. at 400 nm for 20 min. [2, 4]	Absorb. at 400 nm for 60 min. [2, 4]	inhibition of carboxylase (in words) [2]	Absorb. at 405 nm for 50 min. [1, 5]	Absorb. at 405 nm for 110 min. [1, 5]	Absorb. at 405 nm for 165 min. [1, 5]	Activity ([1]; 240 μg of isofenphos in 4.0 mL, Test #2, 200 μL saliva, 37° C. (no inhibitor: 1.14)) [nmol/min]	% Act. [2, 6] [%]	Absorb. at 400 nm for 65 min. [2, 6]	Absorb. at 400 nm for 100 min. [2, 6]	% Inhib. [2, 7] [%]	Absorb. at 400 nm for 20 min. [2, 7]	Absorb. at 400 nm for 60 min. [2, 7]
CCOP(=O)(OCC)Oc1ccc([N+](=O)[O-])cc1 [Paraoxon, paraoxon]	inhibited	40	.23	.76	99	.03	.14	inhibited	–	–	–	–	–	–	–	–	–	–
CCOP(=S)(NC(C)C)Oc1ccccc1C(=O)OC(C)C (centres unmarked) [Isofenphos, isofenphos]	inhibited	–	–	–	–	–	–	inhibited	.41	.43	.51	1.02	92	2.0 and 1.1	2.0 and 1.5	84	.33	.75
